pKi: −log10 of the molar value. “Also recorded” adds a separate entry of the source.
Columns and labels:
[1] = target: T1, human A3 adenosine receptor (Homo sapiens, UniProt P0DMS8); experiment: 125I-ABA binding to membranes of stably transfected CHO cells expressing the human A3 adenosine receptor (HS-21a); details: for potency order of antagonists / potency order of agonists: order in words/symbols
T1 construct: clone HS-21a contained the complete open reading frame corresponding to the human homolog of the rat A3 adenosine receptor; expressed in transfected cells; host or cells: CHO cells stably transfected with HS-21a cDNA
T1 sequence (P0DMS8 1-318): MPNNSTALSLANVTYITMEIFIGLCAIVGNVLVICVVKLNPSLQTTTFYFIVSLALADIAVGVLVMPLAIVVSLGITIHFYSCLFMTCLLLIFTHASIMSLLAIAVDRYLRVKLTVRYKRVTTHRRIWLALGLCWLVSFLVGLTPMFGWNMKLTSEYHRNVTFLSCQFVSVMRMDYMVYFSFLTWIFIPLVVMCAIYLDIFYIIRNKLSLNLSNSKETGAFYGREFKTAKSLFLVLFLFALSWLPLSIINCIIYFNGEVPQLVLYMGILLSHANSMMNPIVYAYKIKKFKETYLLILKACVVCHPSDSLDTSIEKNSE
Method: Membranes were prepared from transiently transfected COS7 cells […] after transfection or from G418-selected stably transfected CHO or HEK 293 cells. Cells were harvested in 1 mM EDTA in phosphate buffered saline and centrifuged at 2000×g for 10 minutes. The cell pellet was washed once with phosphate buffered saline. The cell pellet was resuspended in 2 mL of 5 mM Tris, pH 7.6/5mM MgCl2. Membranes were prepared from the cells by freeze-thaw lysis in which the suspension was frozen in a dry ice/ethanol bath and thawed at 25° C. twice. The suspension was homogenized after adding an additional 2 mL of 5 mM Tris, pH 7.6/5 mM MgCl2, in a glass dounce homogenizer with 20 strokes. The membranes were pelleted at 40,000×g at 4° C. for 20 minutes. The membrane pellet was resuspended at a protein concentration of 1-2 mg/mL in binding assay buffer, 50 mM Tris, pH 7.6/10 mM MgCl2. Protein concentration was determined by the method of Bradford ((1976) Anal. Biochem. 72: 248-250). […] Saturation binding of [^125 I]-N^6 -aminiobenizyladenosine (125I-ABA) or [^125 I]-N^6 -2-(4-amino-3-iodophenyl)ethyladenosine (APNEA) was performed on membranes prepared from pSVLA3 transfected COS7 cells. Membranes (100 μg) were incubated in the presence of 0.2 U/mL adenosine deaminase with increasing concentrations of ^125 I-ABA in the range of 0.1-30 nM for 120 minutes at 25° C. in a total volume of 500 μl. The binding assay was terminated by rapid filtration and three washes with ice-cold 50 mM Tris, pH 7.6/10 mM MgCl2 on a Skatron cell harvester equipped with a receptor binding flitermat (SKATRON INSTRUMENTS, INC). Non-specific binding was determined on non-transfected cells. Bound radioactivity was measured by scintillation counting in Ready Safe Scintillation Cocktail (BECKMAN).
The 1.7 kb HS-21a cDNA (A3) was subcloned as a SalI-BamHl fragment into the expression vector pCMV5 (Mumby, S. M., Heukeroth, R. O., Gordon, J. I. and Gilman, A. G. (1990) Proc. Natl. Acad. Sci. USA 87, 728-732.) creating the vector pCMV5-A3. CHO or HEK 293 cells stably expressing the human HS-21 a cDNA were prepared by co-transfection of 15 μg pCMV5-A3 and 1 μg pWLneo (Stratagene) using the calcium phosphate method. Stable cell lines were also generated using EBV based mammalian expression vectors, pREP (INVITROGEN). Neomycin resistant colonies were selected in 1 mg/mL G418 (GIBCO). Stable colonies were screened for expression of HS-21a by ^125 I-ABA binding.
Membranes were prepared from stable CHO cell lines in 10 mM Hepes, pH 7.4 containing 0.1 mM benzamidine and 0.1 mM PMSF as described (Mahan, L. C. et al., (1991) Mol. Pharinacol. 40, 1-7). Pellets were resuspended in 5 mM Hepes, pH 7.4/5 mM MgCl2 /0.1 mM benzarnidine/0.1 mM PMSF at a protein concentration of 1-2 mg/mL and were incubated with adenosine deaminase (Boehringer Mannheim), 2 U/mL at 37° C. for 20 minutes. Saturation binding of ^125 I-ABA was carried out on 50 μg of membranes for 120 minutes at 25° C. in a total volume of 100 μl. The assay was terminated by rapid filtration and three washes with ice-cold binding buffer on a Skatron harvester equipped with a receptor binding filtermat (Skatron Instruments, Inc.). The specific activity of ^125 I-ABA, initially 2,200 Ci/mmol, was reduced to 100 Ci/mmol with nonradioactive I-ABA for saturation analysis. Nonspecific binding was measured in the presence of 1 uM I-ABA. The KD and Bmax values were calculated by the EBDA program (McPherson, G. A. (1983) Computer Programs for Biomedicine 17, 107-114). Competition binding of agonists and antagonists was determined with ^125 I-ABA (0.17-2.0 nM, 2000 Ci/mmol). […] Binding data were analyzed and competition curves were constructed by use of the nonlinear regression curve fitting program Graph PAD InPlot, Version 3.0 (Graph Pad Software, San Diego).

[2] = tested on: myocardial ischemic injury; details: inhibitor of mast cell degranulation; cited from earlier work
[3] = tested on: rat A3 adenosine receptor; details: cited from earlier work
[4] = target: T1, human A3 adenosine receptor; experiment: inhibition of forskolin-stimulated cAMP accumulation in stably transfected CHO cells expressing the human A3 receptor; assay type: cell-based; details: stably transfected CHO cells, human A3
Method: The human A3 adenosine receptor from a striatal cDNA library can be cloned using a probe derived from the homologous rat sequence.
cAMP Accumulation in Stable CHO Cell Lines
The changes in cAMP accumulation can alternatively be measured in stably transfected CHO cells expressing the human adenosine receptor subtypes. CHO cells are washed twice in phosphate buffered saline (PBS) and detached in 0.2% EDTA in PBS. The cells are pelleted at 800 rpm for 10 min and resuspended in KRH buffer (140 mM NaCl/5 mM KCl/2 mM CaCl2 /1.2 mM MgSO4 /1.2 mM KH2 PO4 /6 mM glucose/25 mM Hepes buffer, pH 7.4). The cells are washed once in KRH buffer and resuspended at 10^7 cells/mL. The cell suspension (100 μl) is mixed with 100 μl of KRH buffer containing 200 uM Ro 20-1724 and incubated at 37° C. for 10 minutes. Adenosine (10 uM) was added in 200 μl KRH buffer containing 200 uM Ro 20-1724 and incubated at 37° C. for 20 minutes. After the incubation, 400 μl of 0.5 mM NaOAc (pH 6.2) was added and the sample was boiled for 20 minutes. The supernatant was recovered by centrifugation for 15 minutes and stored at -70° C. cAMP levels were determined by radiommunoassay (RIANEN kit, DuPont/NEN) using the to acetylation protocol. The effect of antagonists on cAMP accumulation are measured by preincubation for 20 minutes before adding adenosine.

[5] = tested on: sheep A3 adenosine receptor; details: cited from earlier work
[6] = tested on: rat A3 adenosine receptor; details: cited from earlier work; remark: listed apart in the source
asthmatics = details: cited from earlier work
A3 adenosine receptor = details: animal model; Jin et al. 1997; cited from earlier work
[7] = tested on: receptor exhibiting an agonist pharmacological profile thought to be characteristic of the rat A3 subtype; details: angiotensin II-supported pithed rat; cited from earlier work
[8] = target: T1, human A3 adenosine receptor; details: cited from earlier work
[9] = tested on: sheep A3 adenosine receptor; details: cited from earlier work; remark: listed apart in the source
A1 adenosine receptor = details: cited from earlier work
A2A adenosine receptor = details: cited from earlier work
A2B adenosine receptor = details: cited from earlier work

In the case of CCCn1c(=O)c2[nH]c(-c3ccc(OCC(=O)O)cc3)nc2n(Cc2ccc(N)c(I)c2)c1=O [I-ABOPX], the “A3 antagonist affinity in words” value ([1]; human A3) was “highest affinity para-substituted antagonist yet reported for A3 adenosine receptors” and the “potency order of antagonists” value ([1]; human A3) was “I-ABOPX>1,3-dipropyl-8-(4-acrylate) phenylxanthine (BW-A1433)≥xanthine amino cogener (XAC)>>1,3-dipropyl-8-cyclopentylxanthine (DPCPX)”.

For N#Cc1cc(NC(=O)C(=O)O)c(Cl)c(NC(=O)C(=O)O)c1 [lodoxamide], the “reduction of myocardial ischemic injury” value [2] is given as “reduces myocardial ischemic injury”.

In the case of Nc1ccc(CCNc2ncnc3c2ncn3[C@@H]2O[C@H](CO)[C@@H](O)[C@H]2O)cc1[125I] [^125 I-APNEA, N^6-2-(4-amino-3^125 iodophenyl)ethyladenosine], the “non-specific binding to CHO cell membranes” value ([1]; 125I-APNEA, preliminary experiments) is listed as “high non-specific” and the “binding to rat A3 receptor” value [3] is listed as “bind”.

For CCCn1c(=O)c2[nH]c(C3CCCC3)nc2n(CCC)c1=O [DPCPX, 1,3-dipropyl-8-cyclopentylxanthine], the “potency order of antagonists” value ([1]; human A3) is given as “I-ABOPX>1,3-dipropyl-8-(4-acrylate) phenylxanthine (BW-A1433)≥xanthine amino cogener (XAC)>>1,3-dipropyl-8-cyclopentylxanthine (DPCPX)” and the “binding to rat A3 receptor” value [3] is given as “not to bind”.

In the case of C[C@@H](Cc1ccccc1)Nc1ncnc2c1ncn2[C@@H]1O[C@H](CO)[C@@H](O)[C@H]1O [S-PIA, (R,S)-N^6-phenyl-2-propyladenosine], the “potency order of agonists” value ([1]; human A3) was “N-ethylcarboxamidoadenosine (NECA)≥R-phenylisopropyladenosine(R-PIA)>N^6 -cyclopentyladenosine (CPA)>S-p-benylisopropyladenosine (S-PIA); also recorded: NECA>R-PIA>CPA>S-PLA” and the “inhibition of forskolin-stimulated cAMP accumulation” value [4] was 30-40%.

In the case of CCCn1c(=O)c2[nH]c(-c3ccc(OCC(=O)NCCN)cc3)nc2n(CCC)c1=O [XAC], the “binding to rat A3 receptor” value [3] is listed as “not to bind”.

In the case of OC[C@H]1O[C@@H](n2cnc3c(NC4CCCC4)ncnc32)[C@H](O)[C@@H]1O [CPA, N^6 -cyclopentyladenosine], the pKi ([1]; competition with 125I-ABA (FIG. 3a), read-out: Ki, agonists) was 7.05, the “potency order of agonists” value ([1]; human A3) was “N-ethylcarboxamidoadenosine (NECA)≥R-phenylisopropyladenosine(R-PIA)>N^6 -cyclopentyladenosine (CPA)>S-p-benylisopropyladenosine (S-PIA); also recorded: NECA>R-PIA>CPA>S-PLA” and the “inhibition of forskolin-stimulated cAMP accumulation” value [4] was 30-40%. The agonist affinity order [5] was “I-ABA>APNEA>NECA≥R-PIA>>CPA”.

For C[C@H](Cc1ccccc1)Nc1ncnc2c1ncn2[C@@H]1O[C@H](CO)[C@@H](O)[C@H]1O [R-PIA], the “potency order of agonists” value ([1]; human A3) is listed as “N-ethylcarboxamidoadenosine (NECA)≥R-phenylisopropyladenosine(R-PIA)>N^6 -cyclopentyladenosine (CPA)>S-p-benylisopropyladenosine (S-PIA); also recorded: NECA>R-PIA>CPA>S-PLA”, the “inhibition of forskolin-stimulated cAMP accumulation” value [4] is listed as 30-40% and the “potency order for inhibition of cyclic AMP accumulation” value (shortened to “potency order for inhibition”) [6] is listed as “NECA=R-PIA>CGS21680”. The agonist affinity order [5] was “I-ABA>APNEA>NECA≥R-PIA>>CPA”.

For Cn1c(=O)c2[nH]cnc2n(C)c1=O [theophylline], the “antagonism of adenosine-induced bronchoconstriction” value (asthmatics) is listed as “antagonized”.

For Nc1ccc(CCNc2ncnc3c2ncn3[C@@H]2O[C@H](CO)[C@@H](O)[C@H]2O)cc1I [APNEA, N^6-2-(4-amino-3-iodophenyl)ethyladenosine], the agonist affinity order [5] is listed as “I-ABA>APNEA>NECA≥R-PIA>>CPA”.

For OC[C@H]1O[C@@H](n2cnc3c(O)ncnc32)[C@H](O)[C@@H]1O [inosine], the “induction of mast cell degranulation” value (A3 adenosine receptor) is listed as “induce mast cell degranulation”.

In the case of Cn1c(=O)c2[nH]c(-c3ccc(S(=O)(=O)O)cc3)nc2n(C)c1=O [8-(para-sulfophenyl)theophylline], the “sensitivity of hypotension to blockade” value [7] is given as “insensitive to blockade”, the “blockade of human A3 receptor” value [8] is given as “blocks” and the “blockade of sheep A3 receptor” value [9] is given as “blocks”. The “action on A1 subtype” value (A1 adenosine receptor) was “broad action”, the “action on A2A subtype” value (A2A adenosine receptor) was “broad action” and the “action on A2B subtype” value (A2B adenosine receptor) was “broad action”.

In the case of CCNC(=O)[C@H]1O[C@@H](n2cnc3c(N)ncnc32)[C@H](O)[C@@H]1O [NECA, N-ethylcarboxamidoadenosine], the “prevention of specific binding of 125I-ABA” value ([1]; 400 uM NECA) was “prevented”, the “potency order of agonists” value ([1]; human A3) was “N-ethylcarboxamidoadenosine (NECA)≥R-phenylisopropyladenosine(R-PIA)>N^6 -cyclopentyladenosine (CPA)>S-p-benylisopropyladenosine (S-PIA); also recorded: NECA>R-PIA>CPA>S-PLA” and the “inhibition of forskolin-stimulated cAMP accumulation” value [4] was 30-40%. For the same molecule, the “potency order for inhibition” value [6] was “NECA=R-PIA>CGS21680” and the agonist affinity order [5] was “I-ABA>APNEA>NECA≥R-PIA>>CPA”.

For CCCn1c(=O)c2[nH]c(-c3ccc(C=CC(=O)O)cc3)nc2n(CCC)c1=O [BW-A1433, 1,3-dipropyl-8-(4-acrylate) phenylxanthine], the “potency order of antagonists” value ([1]; human A3) was “I-ABOPX>1,3-dipropyl-8-(4-acrylate) phenylxanthine (BW-A1433)≥xanthine amino cogener (XAC)>>1,3-dipropyl-8-cyclopentylxanthine (DPCPX)”.

In the case of CCNC(=O)[C@H]1O[C@@H](n2cnc3c(N)nc(NCCc4ccc(CCC(=O)O)cc4)nc32)[C@H](O)[C@@H]1O [CGS21680], the “potency order for inhibition” value [6] is listed as “NECA=R-PIA>CGS21680”.

— patent US6303619A, “Meta-substituted acidic 8-phenylxanthine antagonists of A3 human adenosine receptors” (priority 1998, dated 2001)
